Values of other authors, collected in patent US7037910B2, “Azabicyclic heterocycles as cannabinoid receptor modulators” (Bristol-Myers Squibb, priority 2003, dated 2006).
Where two headings read alike, the source gives them in different places.

What was measured:
[1] = chronic administration for two weeks
[2] = human subjects, 16 week trial period

In the case of `Cc1c(C(=O)NN2CCCCC2)nn(-c2ccc(Cl)cc2Cl)c1-c1ccc(I)cc1` [AM-251], the body weight [1] is listed as “substantial body weight reduction”.

For `Cc1c(C(=O)NN2CCCCC2)nn(-c2ccc(Cl)cc2Cl)c1-c1ccc(Cl)cc1` [SR-141716], the body weight [2] is given as “dose-dependently reduced body weight”.
